From patent publication US9345691B2, “Beta-lactam compounds for enhancing T cell-mediated immune responses” (STEM CELL MEDICINE LTD., priority 2011, dated 2016)
Entries after “also recorded” stand apart in the source; their conditions may differ.

Legend:
[1] = test system: human CD3 T cells; experiment: Pen 9 western blot of antibiotic-treated human T cells; assay type: cell-based; conditions: human T cells activated by mitogen in presence of the antibiotic
[2] = test system: NOD mice; experiment: Autoimmune diabetes in NOD mice; assay type: in vivo, mouse
Experimental: NOD mice spontaneously develop diabetes mellitus similar to type I diabetes in humans. […] The mice were followed for the development of diabetes, marked by blood sugar above 300 mg/dl on 2 measurements.

[3] = test system: CD4+ human T cells; experiment: Real-time PCR verification of six genes; assay type: cell-based; conditions: same RNA as gene array; cefuroxime 50 μg/ml
Experimental: To verify the results of the gene array, we synthesized real-time PCR primers (designed with the LightCycler probe design software (Roche)). Real-time PCR of 6 selected genes was performed using a LightCycler (Roche, Basel, Switzerland). RNA was reverse transcribed to cDNA from 1 μg of total RNA, which was then subjected to quantitative RT-PCR performed essentially according to the manufacturer's instructions. Specific primer pairs were used to amplify specific genes in the presence of 3 mM MgCl2. PCR was performed in triplicate in a total volume of 20 μl of LightCycler HotStart DNA SYBR Green I mix (Roche) containing primer and 5 μl of cDNA. […] Denaturation was performed for 15 s at 95° C., annealing was performed in 60° C., and the extension was performed at 72° C. for 20 s, with fluorescence detection at 72° C. after each cycle. After the final cycle, melting point analyses of all samples were performed within the range of 62-95° C. with continuous fluorescence detection. […]
The Human Autoimmune and Inflammatory Response Gene Array (SuperArray Bioscience corporation, Frederick, Md., USA) was used for analysis of gene expression by the T cells. […] To verify the results detected by the gene array study, a panel of six genes was designed and tested by real-time PCR: CCR4, ACVR2, JAK1, STAT4, TLR2 and NFKBIE. […]

[4] = test system: Adjuvant Arthritis (AA) in rats; experiment: Adjuvant arthritis (AA); assay type: in vivo, rat; conditions: IP 5 mg (25 mg/kg) once every 2 or 3 days from day 12, versus non-injected control
Experimental: Heat-killed Mycobacterium tuberculosis (Mt) strain H37Ra (Difco) was finely ground using a pestle and mortar, and was suspended to a final concentration of 10 mg/ml in IFA. Test rats were injected at the base of the tail with a total of 100 μl of the Mt suspension. The day of AA induction was designated as day 0. Disease severity was assessed by direct observation of all four limbs in each animal. A relative score between 0 and 4 was assigned to each limb based on the degree of joint inflammation, redness, and deformity; thus, the maximum possible score for an individual animal was 16. The results are presented as the mean±SE of total score.
To test the effects of antibiotics in vivo, active experimental autoimmune encephalomyelitis (EAE) was induced in rats as described above, and the injected rats (4 per group) were treated with oral cefuroxime axetil in the drinking water from day 7 postinduction (“Oral T Cefurox.”). One 500 mg tablet was dissolved in 500 ml of drinking water. The daily dose was 50 mg/kg, in the range of therapeutic pediatric human doses. As a control, the intravenous cefuroxime sodium preparation, which is not absorbed into the circulation, was administered orally (“Oral inj. Cefurox.”). A second control group was given water without antibiotics (“Control”). […]

[5] = test system: experimental autoimmune encephalomyelitis (EAE) in rats; experiment: Actively induced EAE; assay type: in vivo, rat; conditions: oral in drinking water from day 7 postinduction, daily dose 50 mg/kg, versus two control groups

| SMILES | reactivity of Pen 9 antibody with lysates of treated T cells [1] | effect on type I diabetes ([2]; NOD mice) | incidence of diabetes ([2]; NOD mice at 5.7 months, SC weekly, ampicillin 1300 μg, ceftriaxone 675 μg per mouse) [%] | expression of CCR4, ACVR2, JAK1, STAT4, TLR2 and NFKBIE by real-time PCR [3] | arthritis scores [4] | severity of actively induced EAE [5] |
| --- | --- | --- | --- | --- | --- | --- |
| CC1(C)S[C@@H]2[C@H](NC(=O)[C@H](N)c3ccccc3)C(=O)N2[C@H]1C(=O)O [ampicillin] | did not bind | Inhibition of type I diabetes in NOD mice | 30 | – | – | – |
| CO/N=C(\C(=O)N[C@@H]1C(=O)N2C(C(=O)O)=C(COC(N)=O)CS[C@H]12)c1ccco1 [cefuroxime] | – | – | – | suppressed | significantly more severe arthritis scores; also recorded: Exacerbation of adjuvant-induced arthritis | increases the severity of actively induced EAE |
